Marks after values point to notes of the source that are not given here.
What was measured:
[1] = MTT assay, cell viability; conditions: male, human, peripheral blood mononuclear cells (PBMCs)
Experimental: (§1) Blood was collected by venipuncture into heparinized vacutainers (BD Vacutainer Systems, Plymouth, UK), stored at room temperature, protected from light, and processed within 2 h. PBMCs were isolated by density gradient centrifugation (400 × g, 30 min) with separation medium (Histopaque® - 1077). After isolation, PBMCs were stained with Trypan blue and counted using a hemocytometer.
(§2) The MTT assay is regarded as a sensitive and reliable colorimetric assay to quantify cellular viability, proliferation, and activation. It is based on the ability of mitochondrial nicotinamide adenine dinucleotide phosphate (NADPH)-dependent cellular oxidoreductase enzymes present in viable cells to reduce soluble tetrazolium salt (3-[4,5-dimethylthiazol-2-yl]-2,5 diphenyl tetrazolium bromide) to insoluble, colored formazan compounds [26].
(§3) The MTT assay was conducted in triplicate in the 96-well plate, with two technical replicates. The seeding density was 6.25 × 10^3 cells per well.
(§4) After 72 h of incubation, the reagent MTT was added to samples for 3 h at 37 ^∘C. DMSO was added to solubilize the formazan crystals followed by further incubation for 30 and 60 min at 37 ^∘C. The optical density was measured at 570 nm using the multiplate reader Multi-Scan FC (Thermo Fisher Scientific, USA). The cell viability was determined according to (5): (5) [drawing 5]

[2] = system: PBMCs; assay: Alkaline comet assay, tail intensity; assay type: cell-based, human; conditions: 3 h
Experimental: as §1
The comet assay is a sensitive technique for measuring DNA damage at the level of the individual eukaryotic cell. It is based upon the fact that denatured cleaved DNA fragments, or damaged DNA, migrate out of the cell at a different rate during electrophoresis than undamaged DNA [32]. Damaged DNA creates a “comet tail,” while the undamaged DNA remains within the cell membrane creating the “comet head.” The Comet assay is most commonly run under alkaline conditions to detect single and double-stranded DNA breaks.
PBMCs were isolated as previously described and then cultivated in PB-MAX™ Karyotyping Medium and incubated for 24 h at 37 ^∘C. […] Positive and negative controls were also set up equally. Treated cells were incubated at 37 ^∘C for 3 h and then centrifuged at 800 rpm (120 × g) for 5 min. The supernatant was removed and the cells were subsequently resuspended.
In a tube containing 120 µL of 0.7% LMPA, 80 µL of the sample was added for each tested concentration and controls. Prepared samples were applied to slides precoated with a 1% NMPA and covered with coverslips. After gel polymerization, coverslips were removed and slides were immersed in lysis buffer overnight at 4 ^∘C. Afterward, slides were washed with distilled water and placed into the electrophoresis tank with an electrophoresis solution (200 mM Na2EDTA, 10 M NaOH, and distilled water, pH > 13) for 20 min, followed by 20 min of electrophoresis (1 V/cm). After electrophoresis, slides were gently rinsed in the following sequences: phosphate-buffered saline (PBS) for 5 min, 70% (V/V) ethanol for 5 min, and finally 96% (V/V) ethanol for 15 min.
Prior to the fluorescent microscope analysis (U-MNU2; Olympus BX51, Tokyo, Japan), slides were rehydrated and stained with DAPI (1 µg/mL). DNA damage in treated cells was evaluated using Comet Assay IV software (Instem LSS Ltd., Staffordshire, UK), by measuring tail intensity (TI%), the percent of DNA in the tail of comets. For each concentration, as well as for positive and negative controls, at least 200 comets were analyzed. The Minimum Information for Reporting Comet Assay (MIRCA) protocol was used to report the results.

[3] = system: HeLa cells; design: method as in PMID 19616959; conditions: cited from earlier work
[4] = system: LO2 cells; design: method as in PMID 26256188; conditions: cited from earlier work
[5] = system: endothelial (HUVEC) cells; conditions: cited from earlier work
[6] = system: Calu-3 cells; design: method as in PMID 18160169; conditions: cited from earlier work
[7] = system: mouse retinal cells; design: method as in PMID 33803405; conditions: cited from earlier work
[8] = system: HCT-116 cancer cells; conditions: cited from earlier work
[9] = system: MDA-MB-231 cancer cells; conditions: cited from earlier work
[10] = system: PBMCs; assay: Cytokinesis block micronucleus cytome (CBMN-cyt) assay; assay type: cell-based, human; design: Total MNi (mean ± SD) / BN cells with MNi (mean ± SD) / NBUDs (mean ± SD) / NPBs (mean ± SD): unit not given here
Text: DNA damage events were scored specifically in once-divided binucleated (BN) cells and included micronuclei (MNi), a biomarker of chromosome breakage and/or whole chromosome loss, nucleoplasmic bridges (NPBs), a biomarker of DNA misrepair and/or telomere end-fusions, and nuclear buds (NBUDs), a biomarker of elimination of amplified DNA and/or DNA repair complexes. Cytostatic and cytotoxic effects were examined by calculating the nuclear division index (NDI) and nuclear division cytotoxicity index (NDCI) based on the proportion of mono-, bi-, and multinucleated cells and necrotic and/or apoptotic cell ratios, respectively.
Whole blood, 400 µL per each treatment, was cultured in PB-MAX™ Karyotyping Medium for 72 h at 37 ^∘C. […] Untreated cultures were set up as negative controls. Cytochalasin B was added to the final concentration of 4.5 µg/mL to block cytokinesis.
After the cultivation period, cultures were centrifuged for 10 min at 1000 rpm (188 × g) and subjected to hypotonic treatment with 0.56% KCl and centrifuged immediately after the hypotonic addition. Hypotonic treatment was followed by three fixations in ice-cold glacial acetic acid + ethanol (1:3) fresh fixative. The fixed lymphocyte solution was dropped on coded microscope slides. Air-dried slides were stained in 5% Giemsa for 7 min. […] Frequencies of mononuclear, binuclear, trinuclear, and quadrinuclear cells, as well as apoptotic and necrotic cells, were scored in a total number of at least 500 cells. All genotoxicity and cytotoxicity parameters were recognized according to the criteria given by Fenech.

[11] = system: human PBMCs; assay: MTT assay, cell viability; conditions: human PBMCs, 72 h, 36.36–109.09 ng/mL
Experimental: as §1, §2, §3, §4

[12] = β-CD […] (w/w), 25 mg DMH/mL of water
Experimental: Phase solubility studies were performed according to the Higuchi and Connors’ method [21]. […] Sample solutions were prepared as described by Hindija et al. [22]. […] Each measurement was run in triplicate.
Phase solubility studies, where the change of drug solubility corresponds to CD concentration, were conducted to assess the binding characteristics of the drug and CD and to determine the values of stability constant (Ks), complexation efficacy (CE), and utility number (UCD).
The utility number (UCD) is expressed as: (4) [drawing 4] where mD and mCD are the drug dose and workable amount of CD in mg, respectively, while MWD and MWCD stand for molecular weights of D and CD [22].

[13] = system: HEK293 cells; design: method as in earlier work; conditions: cited from earlier work

OC[C@H]1O[C@@H]2O[C@H]3[C@H](O)[C@@H](O)[C@@H](O[C@H]4[C@H](O)[C@@H](O)[C@@H](O[C@H]5[C@H](O)[C@@H](O)[C@@H](O[C@H]6[C@H](O)[C@@H](O)[C@@H](O[C@H]7[C@H](O)[C@@H](O)[C@@H](O[C@H]8[C@H](O)[C@@H](O)[C@@H](O[C@H]1[C@H](O)[C@H]2O)O[C@@H]8CO)O[C@@H]7CO)O[C@@H]6CO)O[C@@H]5CO)O[C@@H]4CO)O[C@@H]3CO [β-CD, β-cyclodextrin]
viability at 72 h, 1000 ng/mL [1]: 90.3%
Tail intensity (mean ± SD) ([2]; concentration of β-CD 250 ng/mL): 3.02 ± 1.45%
Tail intensity (mean ± SD) ([2]; concentration of β-CD 500 ng/mL): 3.22 ± 1.09%
Tail intensity (mean ± SD) ([2]; concentration of β-CD 750 ng/mL): 3.25 ± 1.02%
Tail intensity (mean ± SD) ([2]; concentration of β-CD 1000 ng/mL): 3.42 ± 1.08%
Effect on cell viability [3]: does not affect cell viability
Effect on cell viability [4]: does not affect cell viability
Effect on cell viability [5]: does not affect cell viability
Effect on cell viability [6]: does not affect cell viability
Effect on cell viability [7]: does not affect cell viability
Effect on cell viability [8]: does not affect cell viability
Effect on cell viability [9]: does not affect cell viability

O=c1[nH]cc(F)c(=O)[nH]1 [5-FU, 5-fluorouracil]
viability at 72 h, 100 µg/mL [1]: 64.8%
Genotoxic effects in alkaline comet assay [2]: genotoxic effects were observed
Tail intensity (mean ± SD) ([2]; 5-FU 100 µg/mL): 5.93 ± 0.23%
BN cells with MNi (mean ± SD) ([10]; positive control): 19 ± 6.56
NBUDs (mean ± SD) ([10]; positive control): 3.5 ± 1.92
NDCI, nuclear division cytotoxicity index (mean ± SD) ([10]; positive control): 1.577 ± 0.01
NDI, nuclear division index (mean ± SD) ([10]; positive control): 1.612 ± 0.01
NPBs (mean ± SD) ([10]; positive control): 1 ± 0.82
Total MNi (mean ± SD) ([10]; positive control): 19.25 ± 6.65

CN(C)CCOC(c1ccccc1)c1ccccc1.Cn1c(=O)c2[nH]c(Cl)nc2n(C)c1=O [DMH, 2-benzhydryloxy-N,N-dimethylethanamine; 8-chloro-1,3-dimethyl-7H-purine-2,6-dione]
Difference in cell viability versus negative control (Tukey–Kramer) [11]: no statistically significant differences
NBUDs (mean ± SD) ([10]; DMH 72.73 ng/mL): 0.75 ± 0.96^s
NPBs (mean ± SD) ([10]; DMH 72.73 ng/mL): 0.25 ± 0.5
Total MNi (mean ± SD) ([10]; DMH 72.73 ng/mL, BN cells): 4.25 ± 0.96^r, s
NBUDs (mean ± SD) ([10]; DMH 90.91 ng/mL): 1.75 ± 1.26^s
NPBs (mean ± SD) ([10]; DMH 90.91 ng/mL): 0.25 ± 0.5
Total MNi (mean ± SD) ([10]; DMH 90.91 ng/mL, BN cells): 6.5 ± 1.92^s
NBUDs (mean ± SD) ([10]; DMH 109.09 ng/mL): 1 ± 0.82^s
NPBs (mean ± SD) ([10]; DMH 109.09 ng/mL): 0.25 ± 0.5
Total MNi (mean ± SD) ([10]; DMH 109.09 ng/mL, BN cells): 6.5 ± 2.38^s
UCD, utility number [12]: 1.156
Effect on cell viability [13]: may slightly affect the viability

Source: paper PMC11496845, “Preparation, characterization, and in vitro cytogenotoxic evaluation of a novel dimenhydrinate-β-cyclodextrin inclusion complex” (Biomolecules and Biomedicine, 2024)
